One molecule from article PMC5218480 (PLoS ONE, 2017) can be followed below.

The structures appear in SMILES notation.

For this assay, the system named is MV-4-11 cells. Description: Gene expression microarray analysis (Affymetrix PrimeView) and GSEA. Format: cell-based, human. Also noted: RFU PODN (11730768_x_at) / Fold change /veh PODN (11730768_x_at) / RFU LINC00158 (11744669_a_at) / Fold change /veh LINC00158 (11744669_a_at) / RFU DUSP10 (11751237_a_at) / Fold change /veh DUSP10 (11751237_a_at) / RFU ID3 (11757404_x_at) / Fold change /veh ID3 (11757404_x_at) / RFU PLEKHG5 (11737974_s_at) / Fold change /veh PLEKHG5 (11737974_s_at) / RFU LRRC4B (11730491_at) / Fold change /veh LRRC4B (11730491_at) / RFU GIMAP4 (11747438_a_at) / Fold change /veh GIMAP4 (11747438_a_at) / RFU KRT8 (11758183_x_at) / Fold change /veh KRT8 (11758183_x_at) / RFU CNN1 (11734310_a_at) / Fold change /veh CNN1 (11734310_a_at) / RFU VPS37D (11726825_at) / Fold change /veh VPS37D (11726825_at) / RFU C10orf10 (11716522_x_at) / Fold change /veh C10orf10 (11716522_x_at) / RFU KIR2DL2 /// KIR2DL4 /// KIR2DL5A /// KIR2DL5B /// KIR2DS1 /// KIR2DS2 /// KIR2DS3 /// KIR2DS4 /// KIR3DL3 /// KIR3DL3 /// KIR3DS1 (11738374_at) / Fold change /veh KIR2DL2 /// KIR2DL4 /// KIR2DL5A /// KIR2DL5B /// KIR2DS1 /// KIR2DS2 /// KIR2DS3 /// KIR2DS4 /// KIR3DL3 /// KIR3DL3 /// KIR3DS1 (11738374_at) / RFU C1QL1 (11718748_at) / Fold change /veh C1QL1 (11718748_at) / RFU TMPRSS4 (11747572_a_at) / Fold change /veh TMPRSS4 (11747572_a_at) / RFU HAMP (11756126_x_at) / Fold change /veh HAMP (11756126_x_at) / RFU RNFT2 (11725882_a_at) / Fold change /veh RNFT2 (11725882_a_at) / RFU NR4A2 (11747474_a_at) / Fold change /veh NR4A2 (11747474_a_at) / RFU ABCC12 (11746883_a_at) / Fold change /veh ABCC12 (11746883_a_at) / RFU TMEM136 (11760407_x_at) / Fold change /veh TMEM136 (11760407_x_at) / RFU CLDN22 /// WWC2 (11732394_at) / Fold change /veh CLDN22 /// WWC2 (11732394_at) / RFU HLA-DPB1 (11760878_x_at) / Fold change /veh HLA-DPB1 (11760878_x_at) / RFU SPINT1 (11716480_a_at) / Fold change /veh SPINT1 (11716480_a_at) / RFU GAP43 (11754022_s_at) / Fold change /veh GAP43 (11754022_s_at) / RFU A4GNT (11735810_at) / Fold change /veh A4GNT (11735810_at) / RFU PRB3 (11715151_x_at) / Fold change /veh PRB3 (11715151_x_at) / RFU TUBB4B (11761932_at) / Fold change /veh TUBB4B (11761932_at) / RFU CAPN14 (11732068_a_at) / Fold change /veh CAPN14 (11732068_a_at) / RFU TMCC2 (11721928_a_at) / Fold change /veh TMCC2 (11721928_a_at) / RFU IRGQ (11745062_a_at) / Fold change /veh IRGQ (11745062_a_at) / RFU FAM174B (11720279_a_at) / Fold change /veh FAM174B (11720279_a_at) / RFU TMPRSS4 (11748680_a_at) / Fold change /veh TMPRSS4 (11748680_a_at) / RFU FAM212B (11763350_a_at) / Fold change /veh FAM212B (11763350_a_at) / RFU PLEKHG5 (11743358_a_at) / Fold change /veh PLEKHG5 (11743358_a_at) / RFU ZSCAN30 (11745921_a_at) / Fold change /veh ZSCAN30 (11745921_a_at) / RFU CMKLR1 (11741424_a_at) / Fold change /veh CMKLR1 (11741424_a_at) / RFU LOC101060620 /// MAPK8IP1 (11723275_at) / Fold change /veh LOC101060620 /// MAPK8IP1 (11723275_at) / RFU SPTSSB (11747773_x_at) / Fold change /veh SPTSSB (11747773_x_at) / RFU PRSS12 (11739890_at) / Fold change /veh PRSS12 (11739890_at) / RFU BIN1 (11741810_x_at) / Fold change /veh BIN1 (11741810_x_at) / RFU WNT11 (11732464_a_at) / Fold change /veh WNT11 (11732464_a_at) / RFU C10orf10 (11716521_a_at) / Fold change /veh C10orf10 (11716521_a_at) / RFU C5orf56 (11738089_at) / Fold change /veh C5orf56 (11738089_at) / RFU CYB561 (11721691_x_at) / Fold change /veh CYB561 (11721691_x_at) / RFU ANKRD19P (11752326_a_at) / Fold change /veh ANKRD19P (11752326_a_at) / RFU OR2T12 /// OR2T33 /// OR2T8 (11738714_s_at) / Fold change /veh OR2T12 /// OR2T33 /// OR2T8 (11738714_s_at) / RFU VCAN (11748164_a_at) / Fold change /veh VCAN (11748164_a_at) / RFU JSRP1 (11732532_at) / Fold change /veh JSRP1 (11732532_at) / RFU KRTAP10-11 (11738290_x_at) / Fold change /veh KRTAP10-11 (11738290_x_at) / RFU MYO3A (11730013_a_at) / Fold change /veh MYO3A (11730013_a_at) / RFU EBF3 (11725865_a_at) / Fold change /veh EBF3 (11725865_a_at) / RFU CAMK2N1 (11719241_x_at) / Fold change /veh CAMK2N1 (11719241_x_at) / RFU C5orf56 (11738088_a_at) / Fold change /veh C5orf56 (11738088_a_at) / RFU OLFML3 (11715873_a_at) / Fold change /veh OLFML3 (11715873_a_at) / RFU LOC100653217 /// NTM (11731650_a_at) / Fold change /veh LOC100653217 /// NTM (11731650_a_at) / RFU MAPK11 (11762145_a_at) / Fold change /veh MAPK11 (11762145_a_at) / RFU FIZ1 (11724087_x_at) / Fold change /veh FIZ1 (11724087_x_at) / RFU OASL (11726364_x_at) / Fold change /veh OASL (11726364_x_at) / RFU SOX15 (11748057_x_at) / Fold change /veh SOX15 (11748057_x_at) / RFU CD79A (11719716_a_at) / Fold change /veh CD79A (11719716_a_at) / RFU HIST1H1D (11736915_at) / Fold change /veh HIST1H1D (11736915_at) / RFU CASKIN2 (11723855_a_at) / Fold change /veh CASKIN2 (11723855_a_at) / RFU LOC730098 (11760151_x_at) / Fold change /veh LOC730098 (11760151_x_at) / RFU OR4N2 (11742367_at) / Fold change /veh OR4N2 (11742367_at) / RFU PRRT2 (11749266_a_at) / Fold change /veh PRRT2 (11749266_a_at) / RFU SNX32 (11753110_a_at) / Fold change /veh SNX32 (11753110_a_at) / RFU CDHR5 (11726645_a_at) / Fold change /veh CDHR5 (11726645_a_at) / RFU RCAN1 (11760418_a_at) / Fold change /veh RCAN1 (11760418_a_at) / RFU FAM167A (11723789_a_at) / Fold change /veh FAM167A (11723789_a_at) / RFU FAM26E (11764081_at) / Fold change /veh FAM26E (11764081_at) / RFU ISYNA1 (11749810_s_at) / Fold change /veh ISYNA1 (11749810_s_at) / RFU ACY1 (11761880_at) / Fold change /veh ACY1 (11761880_at) / RFU 11764098_at / Fold change /veh 11764098_at / RFU SAMD14 (11745864_x_at) / Fold change /veh SAMD14 (11745864_x_at) / RFU NPB (11741838_a_at) / Fold change /veh NPB (11741838_a_at) / RFU TMPRSS6 (11731388_a_at) / Fold change /veh TMPRSS6 (11731388_a_at) / RFU KRTAP10-2 (11738614_at) / Fold change /veh KRTAP10-2 (11738614_at) / RFU ARHGAP8 /// PRR5-ARHGAP8 (11727945_x_at) / Fold change /veh ARHGAP8 /// PRR5-ARHGAP8 (11727945_x_at) / RFU KRTAP5-7 /// NADSYN1 (11734609_at) / Fold change /veh KRTAP5-7 /// NADSYN1 (11734609_at) / RFU RASL12 (11751679_a_at) / Fold change /veh RASL12 (11751679_a_at) / RFU CDKN2B (11736163_a_at) / Fold change /veh CDKN2B (11736163_a_at) / RFU PRF1 (11729649_at) / Fold change /veh PRF1 (11729649_at) / RFU, ZNF638 /// ZNF638-IT1 / Fold change vs veh, ZNF638 /// ZNF638-IT1 / RFU, PANK3 / Fold change vs veh, PANK3 / RFU, SH3YL1 / Fold change vs veh, SH3YL1 / RFU, ZEB2 / Fold change vs veh, ZEB2 / RFU, NRIP1 / Fold change vs veh, NRIP1 / RFU, PTTG1IP / Fold change vs veh, PTTG1IP / RFU, CAPN2 / Fold change vs veh, CAPN2 / RFU, MED14 / Fold change vs veh, MED14 / RFU, SNORA58 / Fold change vs veh, SNORA58 / RFU, C1orf63 / Fold change vs veh, C1orf63 / RFU, LRRFIP1 / Fold change vs veh, LRRFIP1 / RFU, NDUFAF7 / Fold change vs veh, NDUFAF7 / RFU, SLC12A2 / Fold change vs veh, SLC12A2 / RFU, IBTK / Fold change vs veh, IBTK / RFU, ESF1 / Fold change vs veh, ESF1 / Fold change vs veh, TMEM50B / RFU, TAOK1 / Fold change vs veh, TAOK1 / RFU, ACBD3 / Fold change vs veh, ACBD3 / RFU, TMA16 / Fold change vs veh, TMA16 / RFU, RWDD3 / Fold change vs veh, RWDD3 / RFU, BCAT1 / Fold change vs veh, BCAT1 / RFU, EDEM3 / Fold change vs veh, EDEM3 / RFU, TMEM33 / Fold change vs veh, TMEM33 / RFU, WDR75 / Fold change vs veh, WDR75 / RFU, AHCTF1 / Fold change vs veh, AHCTF1 / RFU, TFRC / Fold change vs veh, TFRC / RFU, ZDHHC17 / Fold change vs veh, ZDHHC17 / RFU, NOM1 / Fold change vs veh, NOM1 / RFU, ARL8B / Fold change vs veh, ARL8B / RFU, ZBTB11 / Fold change vs veh, ZBTB11 / RFU, TAMM41 / Fold change vs veh, TAMM41 / RFU, KIAA1704 /// LOC100996395 / Fold change vs veh, KIAA1704 /// LOC100996395 / RFU, ING1 / Fold change vs veh, ING1 / RFU, TRMT61B / Fold change vs veh, TRMT61B / RFU, FUBP3 / Fold change vs veh, FUBP3 / RFU, TP53 / Fold change vs veh, TP53 / RFU, TNKS2 / Fold change vs veh, TNKS2 / RFU, ZFP14 / Fold change vs veh, ZFP14 / RFU, ACTR2 / Fold change vs veh, ACTR2 / RFU, PPP3R1 / Fold change vs veh, PPP3R1 / RFU, PIK3R1 / Fold change vs veh, PIK3R1 / RFU, HNRNPA1 / Fold change vs veh, HNRNPA1 / RFU, RNF170 / Fold change vs veh, RNF170 / RFU, ZNF28 / Fold change vs veh, ZNF28 / RFU, RNGTT / Fold change vs veh, RNGTT / RFU, OGT / Fold change vs veh, OGT / RFU, BRD1 / Fold change vs veh, BRD1 / RFU, MARS / Fold change vs veh, MARS / RFU, ZNF655 / Fold change vs veh, ZNF655 / RFU, FAHD1 / Fold change vs veh, FAHD1 / RFU, BDP1 / Fold change vs veh, BDP1 / RFU, LRRCC1 / Fold change vs veh, LRRCC1 / RFU, ARID1A / Fold change vs veh, ARID1A / RFU, ZNF146 / Fold change vs veh, ZNF146 / RFU, ZNF330 / Fold change vs veh, ZNF330 / RFU, GPN3 / Fold change vs veh, GPN3 / RFU, C9orf123 / Fold change vs veh, C9orf123 / RFU, N4BP2L2 / Fold change vs veh, N4BP2L2 / RFU, ARFIP1 / Fold change vs veh, ARFIP1 / RFU, FAM179B / Fold change vs veh, FAM179B / RFU, BCL10 / Fold change vs veh, BCL10 / RFU, UHRF1BP1L / Fold change vs veh, UHRF1BP1L / RFU, BET1 / Fold change vs veh, BET1 / RFU, CNOT2 / Fold change vs veh, CNOT2 / RFU, ZNF268 / Fold change vs veh, ZNF268 / Fold change vs veh, ZNF507 / RFU, DGCR2 / Fold change vs veh, DGCR2 / RFU, WDSUB1 / Fold change vs veh, WDSUB1 / Fold change vs veh, HSP90B1 /// MIR3652 / RFU, ADSS / Fold change vs veh, ADSS / RFU, GK / Fold change vs veh, GK / RFU, ZNF148 / Fold change vs veh, ZNF148 / RFU, TAF9 / Fold change vs veh, TAF9 / RFU, SLC1A5 / Fold change vs veh, SLC1A5 / RFU, SLMO2 / Fold change vs veh, SLMO2 / RFU, ABCC4 / Fold change vs veh, ABCC4 / RFU, LOC101060439 /// RAP1B / Fold change vs veh, LOC101060439 /// RAP1B / RFU, RFX7 / Fold change vs veh, RFX7 / RFU, GTPBP10 / Fold change vs veh, GTPBP10 / RFU, CNEP1R1 / Fold change vs veh, CNEP1R1 / RFU, BIVM-ERCC5 /// ERCC5 / Fold change vs veh, BIVM-ERCC5 /// ERCC5 / RFU, ILF3 / Fold change vs veh, ILF3 / RFU 11762660_at / Fold change /veh 11762660_at / RFU VCAN (11757783_s_at) / Fold change /veh VCAN (11757783_s_at) / RFU DDX43 (11728927_at) / Fold change /veh DDX43 (11728927_at) / RFU KRT8 (11758188_x_at) / Fold change /veh KRT8 (11758188_x_at) / RFU NKD1 (11759106_at) / Fold change /veh NKD1 (11759106_at) / RFU SRD5A1 (11742802_a_at) / Fold change /veh SRD5A1 (11742802_a_at) / RFU TPSAB1 /// TPSB2 (11721975_s_at) / Fold change /veh TPSAB1 /// TPSB2 (11721975_s_at) / RFU GSTM3 (11746129_a_at) / Fold change /veh GSTM3 (11746129_a_at) / RFU IL23R (11737362_x_at) / Fold change /veh IL23R (11737362_x_at) / RFU TMEM51 (11727254_a_at) / Fold change /veh TMEM51 (11727254_a_at) / RFU PIWIL2 (11732686_x_at) / Fold change /veh PIWIL2 (11732686_x_at) / RFU ORM1 (11744905_x_at) / Fold change /veh ORM1 (11744905_x_at) / RFU CCDC152 (11743942_at) / Fold change /veh CCDC152 (11743942_at) / RFU ECM1 (11717891_a_at) / Fold change /veh ECM1 (11717891_a_at) / RFU IL23R (11748794_a_at) / Fold change /veh IL23R (11748794_a_at) / RFU TNFAIP8L3 (11732012_x_at) / Fold change /veh TNFAIP8L3 (11732012_x_at) / RFU MBOAT4 (11741988_at) / Fold change /veh MBOAT4 (11741988_at) / RFU 11764193_at / Fold change /veh 11764193_at / RFU TMEM53 (11763286_at) / Fold change /veh TMEM53 (11763286_at) / RFU MAGEB2 (11727129_at) / Fold change /veh MAGEB2 (11727129_at) / RFU TMEM200A (11744735_a_at) / Fold change /veh TMEM200A (11744735_a_at) / RFU CCDC152 (11751479_a_at) / Fold change /veh CCDC152 (11751479_a_at) / RFU FAM211A (11726209_a_at) / Fold change /veh FAM211A (11726209_a_at) / RFU RGS16 (11746705_a_at) / Fold change /veh RGS16 (11746705_a_at) / RFU VCAN (11755009_s_at) / Fold change /veh VCAN (11755009_s_at) / RFU RHOB (11743442_s_at) / Fold change /veh RHOB (11743442_s_at) / RFU RGS16 (11720943_a_at) / Fold change /veh RGS16 (11720943_a_at) / RFU RGS16 (11720944_at) / Fold change /veh RGS16 (11720944_at) / RFU, VPS4B / Fold change vs veh, VPS4B / RFU, CREB1 / Fold change vs veh, CREB1 / RFU, DNAJC13 / Fold change vs veh, DNAJC13 / RFU, GNAQ / Fold change vs veh, GNAQ / RFU, CDK5R1 / Fold change vs veh, CDK5R1 / RFU, ZRANB3 / Fold change vs veh, ZRANB3 / RFU, CUL4A / Fold change vs veh, CUL4A / RFU, CCNY / Fold change vs veh, CCNY / RFU, UFL1 / Fold change vs veh, UFL1 / RFU, COG3 / Fold change vs veh, COG3 / RFU, DIAPH2 / Fold change vs veh, DIAPH2 / RFU, SKA2 / Fold change vs veh, SKA2 / RFU, AFF3 / Fold change vs veh, AFF3 / RFU, LMF1 / Fold change vs veh, LMF1 / RFU, IPO11 / Fold change vs veh, IPO11 / RFU, DFFB / Fold change vs veh, DFFB / RFU, FOXP1 / Fold change vs veh, FOXP1 / RFU, CARD8 / Fold change vs veh, CARD8 / RFU, STRN3 / Fold change vs veh, STRN3 / RFU, ADK / Fold change vs veh, ADK / RFU, RASSF2 / Fold change vs veh, RASSF2 / RFU, WIPF1 / Fold change vs veh, WIPF1 / RFU, LARP1B / Fold change vs veh, LARP1B / RFU, RASA1 / Fold change vs veh, RASA1 / RFU, RB1 / Fold change vs veh, RB1 / RFU, PPFIA1 / Fold change vs veh, PPFIA1 / RFU, MAT2A / Fold change vs veh, MAT2A / RFU, CCT5 / Fold change vs veh, CCT5 / RFU, WDR92 / Fold change vs veh, WDR92 / RFU, CUX1 / Fold change vs veh, CUX1 / RFU, TTC7A / Fold change vs veh, TTC7A / RFU, TMEM135 / Fold change vs veh, TMEM135 / RFU, DEPTOR / Fold change vs veh, DEPTOR / RFU, CPM / Fold change vs veh, CPM / RFU, DNAJB6 / Fold change vs veh, DNAJB6 / RFU, CACNA2D3 / Fold change vs veh, CACNA2D3 / RFU, DTX4 / Fold change vs veh, DTX4 / RFU, TFCP2 / Fold change vs veh, TFCP2 / RFU, GMCL1 /// GMCL1P1 / Fold change vs veh, GMCL1 /// GMCL1P1 / RFU, AEBP2 / Fold change vs veh, AEBP2 / RFU, SNHG1 /// SNORD22 /// SNORD25 /// SNORD26 /// SNORD27 /// SNORD28 /// SNORD29 /// SNORD31 / Fold change vs veh, SNHG1 /// SNORD22 /// SNORD25 /// SNORD26 /// SNORD27 /// SNORD28 /// SNORD29 /// SNORD31 / Fold change (Aza/veh), C12orf56 (ProbeSet 11735607_a_at) / Fold change (ACY-1035/veh), C12orf56 (ProbeSet 11735607_a_at) / Fold change (Aza/veh), FGFR1OP (ProbeSet 11751329_s_at) / Fold change (ACY-1035/veh), FGFR1OP (ProbeSet 11751329_s_at) / Fold change (Aza/veh), VPS36 (ProbeSet 11739960_a_at) / Fold change (ACY-1035/veh), VPS36 (ProbeSet 11739960_a_at) / RFU SYPL1 (11715823_x_at) / Fold change /veh SYPL1 (11715823_x_at) / RFU IGFBP7 (11715501_s_at) / Fold change /veh IGFBP7 (11715501_s_at) / RFU REEP3 (11722064_at) / Fold change /veh REEP3 (11722064_at) / RFU IGLL1 (11728026_x_at) / Fold change /veh IGLL1 (11728026_x_at): dose or concentration left out as unconfirmed. The settings on record: MV-4-11 cells, 48 hours.

Consider `Nc1ncn([C@@H]2O[C@H](CO)[C@@H](O)[C@H]2O)c(=O)n1` [azacitidine], for which the “Fold change /veh FAM26E (11764081_at)” value stood at 0.84.
